Experimental data taken from patent US9963448B2, “Bicyclic inhibitors of PAD4” (Padlock Therapeutics, Inc., priority 2015, dated 2018).
Where two headings read alike, the source gives them in different places.

Target: hPAD4 (Homo sapiens, UniProt Q9UM07)
Assay: hPAD4 RFMS (RapidFire mass spectrometry) PAD4 inhibition assay;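 for hPAD4 RFMS pIC50: grade E means pIC50 at most 4 and F means pIC50 4.0 to 5.0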
Format: biochemical
Conditions: hPAD4 enzyme, RFMS readout
Method: Compounds of the present invention were assayed as inhibitors of PAD4 using the assay protocol described below.
Compound stock solutions were stored at RT. […] Final assay conditions were as follows:
Total incubation time: 65 mins at 37° C.
Stop solution: 40 μl 5% TCA in ACN
The compound numbers correspond to the compound numbers in Table 1. […] The term pIC50=−log(IC50). […] “NA” stands for “not assayed.”

[1] = pIC50=−log(IC50), read-out: hPAD4 RFMS pIC50 (converted)

Sequence of hPAD4 (Q9UM07 whole entry): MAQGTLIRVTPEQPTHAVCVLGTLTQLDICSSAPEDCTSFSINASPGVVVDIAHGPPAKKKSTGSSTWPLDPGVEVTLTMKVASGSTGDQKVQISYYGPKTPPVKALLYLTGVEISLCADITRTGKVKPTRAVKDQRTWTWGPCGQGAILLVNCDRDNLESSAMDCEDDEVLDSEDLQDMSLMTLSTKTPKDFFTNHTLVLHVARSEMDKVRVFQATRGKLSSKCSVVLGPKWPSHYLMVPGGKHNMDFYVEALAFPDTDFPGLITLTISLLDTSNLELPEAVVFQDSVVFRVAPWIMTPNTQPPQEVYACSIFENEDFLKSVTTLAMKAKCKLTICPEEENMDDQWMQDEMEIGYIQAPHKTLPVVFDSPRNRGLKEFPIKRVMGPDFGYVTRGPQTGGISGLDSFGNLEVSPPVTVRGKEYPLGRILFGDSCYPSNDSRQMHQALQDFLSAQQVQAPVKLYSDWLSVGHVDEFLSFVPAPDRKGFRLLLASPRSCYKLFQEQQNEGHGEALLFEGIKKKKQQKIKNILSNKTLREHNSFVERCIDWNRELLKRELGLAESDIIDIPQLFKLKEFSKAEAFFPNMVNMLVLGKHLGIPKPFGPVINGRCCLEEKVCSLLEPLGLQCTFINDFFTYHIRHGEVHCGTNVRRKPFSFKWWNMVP

Compound	IC50 [1] [µM]	IC50 (read-out: hPAD4 RFMS IC50) [µM]
CCn1c(-c2nc3cc(C(=O)N4CC[C@@H]5CCN[C@@H]5C4)cc(OC)c3n2C)cc2cccnc21 (single isomer, unassigned) [Compound I-3]	1 to 10	1 to 5
Cn1c(-c2cc3cccnc3n2CC2CC2)nc2cc(C(=O)N3CCC[C@@H]4CNC[C@@H]43)ccc21 [Compound I-43]	> 100	> 10
Cn1c(-c2cc3cccnc3n2CC2CC2)nc2cc(C(=O)N3CCCC4(CCCCN4)C3)ccc21 (centres unmarked) [Compound I-48]	10 to 100	> 10
CCn1c(-c2nc3cc(C(=O)N4CCC5CCNC5C4)cc(OC)c3n2C)cc2cccnc21 (centres unmarked) [Compound I-13, 2-{1-ethyl-1H-pyrrolo[2,3-b]pyridin-2-yl}-7-methoxy-1-methyl-5-{octahydro-1H-pyrrolo[2,3-c]pyridine-6-carbonyl}-1H-1,3-benzodiazole]	1 to 10	1 to 5
Cn1c(-c2cc3cccnc3n2CC2CC2)nc2cc(C(=O)N3CC4CNC4C3)ccc21 (centres unmarked) [Compound I-38]	> 100	> 10
Cn1c(-c2cc3cccnc3n2CC2CC2)nc2cc(C(=O)N3CC4CC3CN4)ccc21 (centres unmarked) [Compound I-37]	> 100	> 10
CCn1c(-c2nc3cc(C(=O)N4CC[C@H]5CCN[C@H]5C4)ccc3n2C)cc2cccnc21 [Compound I-1]	10 to 100	> 10
Cn1c(-c2cc3cccnc3n2CC2CC2)nc2cc(C(=O)N3CC(N)CC(F)(F)C3)ccc21 (centres unmarked) [Compound I-51]	10 to 100	> 10
Cn1c(-c2cc3cccnc3n2CC2CC2)nc2cc(C(=O)N3CCC4CNC4C3)ccc21 (centres unmarked) [Compound I-40]	10 to 100	> 10
Cn1c(-c2cc3cccnc3n2CC2CC2)nc2cc(C(=O)N3CC4CCC(C3)C4N)ccc21 (centres unmarked) [Compound I-50]	> 100	> 10
Cn1c(-c2cc3cccnc3n2CC2CC2)nc2cc(C(=O)N3CCC4CCNC4C3)ccc21 (centres unmarked) [Compound I-6]	1 to 10	1 to 5
Cn1c(-c2cc3cccnc3n2CC2CC2)nc2cc(C(=O)N3CCC4(CCCN4)C3)ccc21 (centres unmarked) [Compound I-39]	10 to 100	> 10
Cn1c(-c2cc3cccnc3n2CC2CC2)nc2cc(C(=O)N3CCC(F)C(N)C3)ccc21 (centres unmarked) [Compound I-49]	1 to 10	5 to 10
Cn1c(-c2cc3cccnc3n2CC2CC2)nc2cc(C(=O)N3CCC[C@@H]4NCC[C@@H]43)ccc21 [Compound I-61]	> 100	> 10
COc1cc(C(=O)N2CC[C@H](F)[C@@H](N)C2)cc2nc(-c3cc4cccnc4n3CC3CC3)n(C)c12 [Compound I-58]	10 to 100	> 10

Other lines, results leading:

IC50 [1] [µM]	IC50 (read-out: hPAD4 RFMS IC50) [µM]	Compound
< 1	< 1	COc1ccc2cc(-c3nc4cc(C(=O)N5C[C@H](N)CC[C@@H]5C)cc(OC)c4n3C)n(CC3CC3)c2n1 [Compound I-355, ((2S,5R)-5-amino-2-methylpiperidin-1-yl)(2-(1-(cyclopropylmethyl)-6-methoxy-1H-pyrrolo[2,3-b]pyridin-2-yl)-7-methoxy-1-methyl-1H-benzo[d]imidazol-5-yl)methanone]
< 1	< 1	COc1cc(C(=O)N2C[C@H]3CC[C@@H]2[C@@H]3N)cc2nc(-c3cc4cc(C5=Cc6ccccc6C5)ccc4n3CC3CC3)n(C)c12 [Compound I-362]
< 1	< 1	CCn1c(-c2nc3cc(C(=O)N4C[C@H]5CC[C@@H]4[C@@H]5N)cc(OC)c3n2C[C@H]2C[C@@](C)(OC)C2)cc2cccnc21 [Compound I-168]
< 1	< 1	COc1cc(C(=O)N2C[C@H]3CCC2[C@H]3N)cc2nc(-c3cc4cc(/C=C/CCc5ccccc5)ccc4n3CC3CC3)n(C)c12 [Compound I-360]
< 1	< 1	COCCn1c(-c2nc3cc(C(=O)N4C[C@H]5CC[C@@H]4[C@@H]5N)cc(OC)c3n2C)cc2cccnc21 [Compound I-169]
< 1	< 1	COc1cc(C(=O)N2C[C@H]3CCC2[C@H]3N)cc2nc(-c3cc4cc(/C=C/c5ccccc5)ccc4n3CC3CC3)n(C)c12 [Compound I-359]
< 1	< 1	COc1ccc2cc(-c3nc4cc(C(=O)N5C[C@@H](N)C[C@H](F)C5)ccc4n3C)n(CC3CC3)c2n1 [Compound I-354, ((3S,5S)-3-amino-5-fluoropiperidin-1-yl)(2-(1-(cyclopropylmethyl)-6-methoxy-1H-pyrrolo[2,3-b]pyridin-2-yl)-1-methyl-1H-benzo[d]imidazol-5-yl)methanone]
< 1	< 1	COc1cc(C(=O)N2C[C@H]3CC[C@H]2[C@H]3N)cc2nc(-c3cc4cc(NCCC5CC5)ccc4n3CC3CC3)n(C)c12 [Compound I-374, ((1S,4R)-7-amino-2-azabicyclo[2.2.1]heptan-2-yl)(2-(5-((2-cyclopropylethyl)amino)-1-(cyclopropylmethyl)-1H-indol-2-yl)-7-methoxy-1-methyl-1H-benzo[d]imidazol-5-yl)methanone]
< 1	< 1	COc1ccc2cc(-c3nc4cc(C(=O)N5C[C@H](N)CC[C@@H]5C)ccc4n3C)n(CC3CC3)c2n1 [Compound I-352, ((2S,5R)-5-amino-2-methylpiperidin-1-yl)(2-(1-(cyclopropylmethyl)-6-methoxy-1H-pyrrolo[2,3-b]pyridin-2-yl)-1-methyl-1H-benzo[d]imidazol-5-yl)methanone]
< 1	< 1	COc1cc(C(=O)N2C[C@H]3CCC2[C@H]3N)cc2nc(-c3cc4ccc(/C=C/C5CC5)cc4n3CC3CC3)n(C)c12 [Compound I-363]
< 1	< 1	COc1cc(C(=O)N2C[C@H]3CCC2[C@H]3N)cc2nc(-c3cc4ccc(/C=C/CC(C)C)cc4n3CC3CC3)n(C)c12 [Compound I-364]
1 to 10	1 to 5	COc1cc(C(=O)N2C[C@H]3CCC2[C@H]3N)cc2nc(-c3cc4cc(N(C)CCC5CC5)ccc4n3CC3CC3)n(C)c12 [Compound I-373]
1 to 10	1 to 5	COc1cc(C(=O)N2C[C@H]3C[C@H](OC)[C@@H]2[C@@H]3N)cc2nc(-c3cc4cccnc4n3CC3CC3)n(C)c12 [Compound I-167, (1 S,4R,6S,7R)-2-{2-[1-(Cyclopropylmethyl)-1H-pyrrolo[2,3-b]pyridin-2-yl]-7-methoxy-1-methyl-1H-1,3-benzodiazole-5-carbonyl}-6-methoxy-2-azabicyclo[2.2.1]heptan-7-amine]
< 1	< 1	COc1cc(C(=O)N2C[C@H]3CC[C@@H]2[C@@H]3N)cc2nc(-c3cc4ccc(C#N)cc4n3CC3CC3)n(C)c12 [Compound I-371]
< 1	< 1	COc1cc(C(=O)N2C[C@H]3CCC2[C@H]3N)cc2nc(-c3cc4ccc(/C=C/c5ccccc5)cc4n3CC3CC3)n(C)c12 [Compound I-365]
< 1	< 1	COc1ccc2cc(-c3nc4cc(C(=O)N5C[C@@H](N)C[C@H](F)C5)cc(OC)c4n3C)n(CC3CC3)c2n1 [Compound I-356, ((3S,5S)-3-amino-5-fluoropiperidin-1-yl)(2-(1-(cyclopropylmethyl)-6-methoxy-1H-pyrrolo[2,3-b]pyridin-2-yl)-7-methoxy-1-methyl-1H-benzo[d]imidazol-5-yl)methanone]
